pIC50: −log10 of the molar value. The source made the active and inactive calls. The calls are words filed in the database; no cut-off is given here.
Assays:
BC = assay: Cytotoxicity against human BC cells up to 38 uM by SRB assay; type: functional, cell-based
NCI-H187 = assay: Cytotoxicity against human NCI-H187 cells up to 38 uM by SRB assay; type: functional, cell-based
KB = assay: Cytotoxicity against human KB cells up to 38 uM by SRB assay; type: functional, cell-based
Plasmodium falciparum = assay: Antimalarial activity against Plasmodium falciparum K1 infected human A+ erythrocytes by [3H]hypoxanthine uptake; type: functional, organism-based
Vero = assay: Cytotoxicity against african green monkey Vero cells by SRB assay; type: cell-based; conditions: chlorocebus sabaeus

pIC50 (Plasmodium falciparum): 5.10
Structure (SMILES): CC[C@@H](C)[C@H](N)C(=O)N(C)[C@H](Cc1ccccc1)C(=O)N[C@@H](CC(C)C)C(=O)Nc1ccccc1C(=O)O [HIRSUTELLIC ACID A]
Activity (BC): inactive | Activity (NCI-H187): inactive | Activity (KB): inactive | Activity (Vero): Non-toxic
